Measurements taken from ChEMBL document CHEMBL4052677, “A small-molecule screen identifies the antitrypanosomal agent suramin and analogues NF023 and NF449 as inhibitors of STAT5a/b” (Bioorg Med Chem Lett, 2017).
Calls of active or inactive are those of the source. No cut-off for these calls is given here.

Experiments:
[1] = biological target: T1, Signal transducer and activator of transcription 5A (Homo sapiens) (UniProt P42229); assay: (§1) Inhibition of 5-carboxyfluorescein-GpYLVLDKW-OH binding to C-terminal 6x-His-tagged and an N-terminal maltose-binding protein-tagged STAT5A SH2 domain (137 to 507 residues) (unknown origin) expressed in Escherichia coli Rosetta BL21 DE3 at 50 uM pre-incubated for 1 hr before fluorescent-labelled peptide addition by fluorescence polarization assay
T1 sequence (whole entry): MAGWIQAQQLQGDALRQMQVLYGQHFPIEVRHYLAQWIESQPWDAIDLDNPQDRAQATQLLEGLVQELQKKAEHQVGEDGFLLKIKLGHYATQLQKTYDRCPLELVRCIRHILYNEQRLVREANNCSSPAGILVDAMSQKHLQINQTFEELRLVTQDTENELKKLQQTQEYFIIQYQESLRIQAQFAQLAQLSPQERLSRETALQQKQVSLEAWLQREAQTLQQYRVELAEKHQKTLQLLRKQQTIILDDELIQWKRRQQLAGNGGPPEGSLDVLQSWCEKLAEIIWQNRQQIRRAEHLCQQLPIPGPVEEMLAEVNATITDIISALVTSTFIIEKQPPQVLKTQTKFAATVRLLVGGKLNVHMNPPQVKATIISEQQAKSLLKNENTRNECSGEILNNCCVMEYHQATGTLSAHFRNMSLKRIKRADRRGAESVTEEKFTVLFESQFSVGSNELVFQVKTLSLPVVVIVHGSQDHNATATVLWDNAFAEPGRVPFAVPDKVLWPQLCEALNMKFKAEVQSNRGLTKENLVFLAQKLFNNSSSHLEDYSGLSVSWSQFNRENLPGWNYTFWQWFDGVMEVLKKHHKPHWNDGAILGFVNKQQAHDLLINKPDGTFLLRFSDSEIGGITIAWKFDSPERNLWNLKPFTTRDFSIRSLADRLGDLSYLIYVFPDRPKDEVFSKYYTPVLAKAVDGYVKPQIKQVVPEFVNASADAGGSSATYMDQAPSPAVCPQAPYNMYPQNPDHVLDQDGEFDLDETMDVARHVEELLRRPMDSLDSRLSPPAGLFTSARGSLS

[2] = biological target: T2, Signal transducer and activator of transcription 5A (Homo sapiens, UniProt P42229); assay: as §1, with “DE3” for “DE3 at 50 uM”
T2 sequence (P42229 whole entry): T1 sequence (whole entry)

[3] = biological target: T3, Signal transducer and activator of transcription 5B (Homo sapiens, UniProt P51692); assay: Inhibition of 5-carboxyfluorescein-GpYLVLDKW-OH binding to STAT5B SH2 domain (unknown origin) pre-incubated for 1 hr before fluorescent-labelled peptide addition by fluorescence polarization assay
T3 sequence (P51692 whole entry): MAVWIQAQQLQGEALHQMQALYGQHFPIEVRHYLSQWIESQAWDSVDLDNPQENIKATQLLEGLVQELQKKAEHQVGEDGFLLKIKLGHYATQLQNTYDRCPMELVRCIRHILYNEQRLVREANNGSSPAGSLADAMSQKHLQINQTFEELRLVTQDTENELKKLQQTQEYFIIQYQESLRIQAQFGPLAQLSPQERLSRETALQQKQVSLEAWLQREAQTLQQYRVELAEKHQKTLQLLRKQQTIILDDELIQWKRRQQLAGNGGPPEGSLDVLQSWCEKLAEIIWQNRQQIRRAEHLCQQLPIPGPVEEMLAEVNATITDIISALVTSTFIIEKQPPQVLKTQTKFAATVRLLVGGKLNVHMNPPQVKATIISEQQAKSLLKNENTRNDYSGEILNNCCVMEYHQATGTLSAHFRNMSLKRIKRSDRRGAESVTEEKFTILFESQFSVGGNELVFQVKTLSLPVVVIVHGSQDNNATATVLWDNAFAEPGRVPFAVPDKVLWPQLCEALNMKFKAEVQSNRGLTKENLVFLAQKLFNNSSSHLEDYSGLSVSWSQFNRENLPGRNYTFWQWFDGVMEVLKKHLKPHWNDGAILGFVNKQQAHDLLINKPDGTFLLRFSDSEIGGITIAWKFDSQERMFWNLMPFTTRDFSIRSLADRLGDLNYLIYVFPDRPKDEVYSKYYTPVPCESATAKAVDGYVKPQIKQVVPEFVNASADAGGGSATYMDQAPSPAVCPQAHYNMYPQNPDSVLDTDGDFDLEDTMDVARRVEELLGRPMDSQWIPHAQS

[4] = biological target: T4, Signal transducer and activator of transcription 1-alpha/beta (Homo sapiens, UniProt P42224); assay: Inhibition of 5-carboxyfluorescein-GpYDKPHVL-OH binding to STAT1 (unknown origin) pre-incubated for 1 hr before fluorescent-labelled peptide addition by fluorescence polarization assay
T4 sequence (P42224 whole entry): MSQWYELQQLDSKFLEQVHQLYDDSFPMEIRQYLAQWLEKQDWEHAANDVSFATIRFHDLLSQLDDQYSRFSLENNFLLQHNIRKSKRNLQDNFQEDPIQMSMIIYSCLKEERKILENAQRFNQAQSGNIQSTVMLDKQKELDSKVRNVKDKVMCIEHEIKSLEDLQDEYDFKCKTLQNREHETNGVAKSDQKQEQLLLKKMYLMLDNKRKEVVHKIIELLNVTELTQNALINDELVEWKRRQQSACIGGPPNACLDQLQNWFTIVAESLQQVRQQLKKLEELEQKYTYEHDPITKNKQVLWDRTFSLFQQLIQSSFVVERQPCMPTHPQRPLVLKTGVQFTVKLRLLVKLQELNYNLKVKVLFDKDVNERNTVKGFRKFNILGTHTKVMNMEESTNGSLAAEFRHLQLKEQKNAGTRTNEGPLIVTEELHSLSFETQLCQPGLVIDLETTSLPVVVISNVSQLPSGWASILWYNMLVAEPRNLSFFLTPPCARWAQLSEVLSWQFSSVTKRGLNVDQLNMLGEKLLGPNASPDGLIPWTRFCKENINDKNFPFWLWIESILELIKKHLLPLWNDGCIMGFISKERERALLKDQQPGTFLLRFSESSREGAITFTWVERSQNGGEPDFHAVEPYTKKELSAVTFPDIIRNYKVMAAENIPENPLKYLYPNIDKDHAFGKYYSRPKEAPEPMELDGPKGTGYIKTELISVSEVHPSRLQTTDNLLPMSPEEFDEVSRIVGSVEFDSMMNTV

[5] = biological target: Signal transducer and activator of transcription 3 (Mus musculus, UniProt P42227); assay: Inhibition of 5-carboxyfluorescein-GpYLPQTV-NH2 binding to mouse STAT3 (127 to 722 residues) expressed in Escherichia coli Rosetta BL21 DE3 pre-incubated for 1 hr before fluorescent-labelled peptide addition by fluorescence polarization assay
Sequence of Signal transducer and activator of transcription 3 (P42227 whole entry, the tested form may be a part): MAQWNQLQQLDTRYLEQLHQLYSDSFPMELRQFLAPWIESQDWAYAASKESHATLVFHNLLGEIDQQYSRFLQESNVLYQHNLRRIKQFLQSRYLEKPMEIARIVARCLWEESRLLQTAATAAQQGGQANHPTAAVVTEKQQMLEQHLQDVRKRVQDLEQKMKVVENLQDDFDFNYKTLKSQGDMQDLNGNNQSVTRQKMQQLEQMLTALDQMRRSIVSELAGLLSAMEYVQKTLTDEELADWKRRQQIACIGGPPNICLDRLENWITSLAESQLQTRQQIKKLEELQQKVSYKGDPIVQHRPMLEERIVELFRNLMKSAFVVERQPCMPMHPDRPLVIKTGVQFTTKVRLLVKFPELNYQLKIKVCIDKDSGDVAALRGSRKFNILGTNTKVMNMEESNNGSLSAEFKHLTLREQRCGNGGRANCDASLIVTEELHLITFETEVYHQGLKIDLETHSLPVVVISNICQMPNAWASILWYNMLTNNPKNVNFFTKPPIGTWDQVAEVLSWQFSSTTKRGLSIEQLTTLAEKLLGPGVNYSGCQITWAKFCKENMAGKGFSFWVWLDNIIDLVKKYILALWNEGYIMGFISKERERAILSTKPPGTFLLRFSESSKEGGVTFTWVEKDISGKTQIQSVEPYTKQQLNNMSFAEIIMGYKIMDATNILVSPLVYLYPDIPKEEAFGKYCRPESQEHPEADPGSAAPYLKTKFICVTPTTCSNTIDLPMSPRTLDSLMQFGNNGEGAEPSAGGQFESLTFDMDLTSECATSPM

Row | inhibition [1] | IC50 [2] | IC50 [3] | IC50 [4] | IC50 [5] | Compound
1 | Active | 8.8 µM | 12.7 µM | 33.2 µM | > 100 µM | O=C(Nc1cccc(C(=O)Nc2ccc(S(=O)(=O)O)c3cc(S(=O)(=O)O)cc(S(=O)(=O)O)c23)c1)Nc1cccc(C(=O)Nc2ccc(S(=O)(=O)O)c3cc(S(=O)(=O)O)cc(S(=O)(=O)O)c23)c1
2 | Active | 9.4 µM | 10.4 µM | 9.1 µM | > 100 µM | Cc1ccc(C(=O)Nc2ccc(S(=O)(=O)O)c3cc(S(=O)(=O)O)cc(S(=O)(=O)O)c23)cc1NC(=O)c1cccc(NC(=O)Nc2cccc(C(=O)Nc3cc(C(=O)Nc4ccc(S(=O)(=O)O)c5cc(S(=O)(=O)O)cc(S(=O)(=O)O)c45)ccc3C)c2)c1 [SURAMIN HEXASODIUM]
3 | Active | 1.4 µM | 2.5 µM | 7.9 µM | > 100 µM | O=C(Nc1cc(C(=O)Nc2ccc(S(=O)(=O)O)cc2S(=O)(=O)O)cc(C(=O)Nc2ccc(S(=O)(=O)O)cc2S(=O)(=O)O)c1)Nc1cc(C(=O)Nc2ccc(S(=O)(=O)O)cc2S(=O)(=O)O)cc(C(=O)Nc2ccc(S(=O)(=O)O)cc2S(=O)(=O)O)c1
